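Cultured in 96-well plates, cells were exposed to test compound for 48 hours across five concentrations. GI50 = concentration required for 50% inhibition of growth. TGI marks complete inhibition of growth.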
Key:
Assay in all cases: NCI anticancer screen, dose series, 48 h
786-0 renal = tested on: 786-0 renal
A498 renal = tested on: A498 renal
A549 NSCLC = tested on: A549 NSCLC
ACHN renal = tested on: ACHN renal
BT-549 breast = tested on: BT-549 breast
CAKI-1 renal = tested on: CAKI-1 renal
CCRF-CEM leukemia = tested on: CCRF-CEM leukemia
COLO 205 colon = tested on: COLO 205 colon
DU-145 prostate = tested on: DU-145 prostate
EKVX NSCLC = tested on: EKVX NSCLC
HCC-2998 colon = tested on: HCC-2998 colon
HCT-116 colon = tested on: HCT-116 colon
HCT-15 colon = tested on: HCT-15 colon
HL-60(TB) leukemia = tested on: HL-60(TB) leukemia
HOP-62 NSCLC = tested on: HOP-62 NSCLC
HOP-92 NSCLC = tested on: HOP-92 NSCLC
HS 578T breast = tested on: HS 578T breast
HT29 colon = tested on: HT29 colon
IGROV1 ovarian = tested on: IGROV1 ovarian
K-562 leukemia = tested on: K-562 leukemia
KM12 colon = tested on: KM12 colon
LOX IMVI melanoma = tested on: LOX IMVI melanoma
M14 melanoma = tested on: M14 melanoma
MALME-3M melanoma = tested on: MALME-3M melanoma
MCF7 breast = tested on: MCF7 breast
MDA-MB-231 breast = tested on: MDA-MB-231 breast
MDA-MB-435 = tested on: MDA-MB-435
MDA-MB-468 breast = tested on: MDA-MB-468 breast
MOLT-4 leukemia = tested on: MOLT-4 leukemia
NCI-H226 lung = tested on: NCI-H226 lung
NCI-H23 lung = tested on: NCI-H23 lung
NCI-H460 lung = tested on: NCI-H460 lung
NCI-H522 lung = tested on: NCI-H522 lung
NCI/ADR-RES ovarian = tested on: NCI/ADR-RES ovarian
OVCAR-3 ovarian = tested on: OVCAR-3 ovarian
OVCAR-4 ovarian = tested on: OVCAR-4 ovarian
OVCAR-5 ovarian = tested on: OVCAR-5 ovarian
OVCAR-8 ovarian = tested on: OVCAR-8 ovarian
PC-3 prostate = tested on: PC-3 prostate
RPMI-8226 leukemia = tested on: RPMI-8226 leukemia
RXF 393 renal = tested on: RXF 393 renal
SF-268 CNS = tested on: SF-268 CNS
SF-295 CNS = tested on: SF-295 CNS
SF-539 CNS = tested on: SF-539 CNS
SK-MEL-2 melanoma = tested on: SK-MEL-2 melanoma
SK-MEL-28 melanoma = tested on: SK-MEL-28 melanoma
SK-MEL-5 melanoma = tested on: SK-MEL-5 melanoma
SK-OV-3 ovarian = tested on: SK-OV-3 ovarian
SN12C renal = tested on: SN12C renal
SNB-19 CNS = tested on: SNB-19 CNS
SNB-75 CNS = tested on: SNB-75 CNS
SR leukemia = tested on: SR leukemia
SW-620 colon = tested on: SW-620 colon
T-47D breast = tested on: T-47D breast
TK-10 renal = tested on: TK-10 renal
U251 CNS = tested on: U251 CNS
UACC-257 melanoma = tested on: UACC-257 melanoma
UACC-62 melanoma = tested on: UACC-62 melanoma
UO-31 renal = tested on: UO-31 renal

Structure (SMILES): COc1ccc2[nH]c(O)c(N=Nc3nc(-c4ccccc4)cs3)c2c1
- GI50 (786-0 renal): 1.96 µM
- TGI (786-0 renal): 3.69 µM
- GI50 (A498 renal): 2.67 µM
- TGI (A498 renal): 5.96 µM
- GI50 (A549 NSCLC): 2.76 µM
- TGI (A549 NSCLC): 11.3 µM
- GI50 (ACHN renal): 2.89 µM
- TGI (ACHN renal): 10.2 µM
- GI50 (BT-549 breast): 4.43 µM
- TGI (BT-549 breast): 21.8 µM
- GI50 (CAKI-1 renal): 3.85 µM
- TGI (CAKI-1 renal): 16.7 µM
- GI50 (CCRF-CEM leukemia): 6.48 µM
- TGI (CCRF-CEM leukemia): > 100 µM
- GI50 (COLO 205 colon): 4.87 µM
- TGI (COLO 205 colon): 29.5 µM
- GI50 (DU-145 prostate): 4.31 µM
- TGI (DU-145 prostate): 17.5 µM
- GI50 (EKVX NSCLC): 2.62 µM
- TGI (EKVX NSCLC): 20.2 µM
- GI50 (HCC-2998 colon): 6.93 µM
- TGI (HCC-2998 colon): > 100 µM
- GI50 (HCT-116 colon): 2.26 µM
- TGI (HCT-116 colon): 5.34 µM
- GI50 (HCT-15 colon): 3.26 µM
- TGI (HCT-15 colon): 17.3 µM
- GI50 (HL-60(TB) leukemia): 41.1 µM
- TGI (HL-60(TB) leukemia): > 100 µM
- GI50 (HOP-62 NSCLC): 5.26 µM
- TGI (HOP-62 NSCLC): 30.3 µM
- GI50 (HOP-92 NSCLC): 1.06 µM
- TGI (HOP-92 NSCLC): 4.14 µM
- GI50 (HS 578T breast): 4.27 µM
- TGI (HS 578T breast): 42.9 µM
- GI50 (HT29 colon): 7.21 µM
- TGI (HT29 colon): 41.1 µM
- GI50 (IGROV1 ovarian): 5.04 µM
- TGI (IGROV1 ovarian): 31.9 µM
- GI50 (K-562 leukemia): 4.62 µM
- TGI (K-562 leukemia): > 100 µM
- GI50 (KM12 colon): 5.55 µM
- TGI (KM12 colon): > 100 µM
- GI50 (LOX IMVI melanoma): 3.08 µM
- TGI (LOX IMVI melanoma): 10.5 µM
- GI50 (M14 melanoma): 5.8 µM
- TGI (M14 melanoma): 46.7 µM
- GI50 (MALME-3M melanoma): 2.51 µM
- TGI (MALME-3M melanoma): 13.1 µM
- GI50 (MCF7 breast): 3.66 µM
- TGI (MCF7 breast): 42.5 µM
- GI50 (MDA-MB-231 breast): 2.66 µM
- TGI (MDA-MB-231 breast): 12.7 µM
- GI50 (MDA-MB-435): 4.96 µM
- TGI (MDA-MB-435): > 100 µM
- GI50 (MDA-MB-468 breast): 1.71 µM
- TGI (MDA-MB-468 breast): 5.35 µM
- GI50 (MOLT-4 leukemia): 7.27 µM
- TGI (MOLT-4 leukemia): > 100 µM
- GI50 (NCI-H226 lung): 2.65 µM
- TGI (NCI-H226 lung): 13.4 µM
- GI50 (NCI-H23 lung): 3.56 µM
- TGI (NCI-H23 lung): 19.5 µM
- GI50 (NCI-H460 lung): 3.43 µM
- TGI (NCI-H460 lung): 14.8 µM
- GI50 (NCI-H522 lung): 2.29 µM
- TGI (NCI-H522 lung): 9.63 µM
- GI50 (NCI/ADR-RES ovarian): 2.24 µM
- TGI (NCI/ADR-RES ovarian): 5.15 µM
- GI50 (OVCAR-3 ovarian): 3.06 µM
- TGI (OVCAR-3 ovarian): 12.5 µM
- GI50 (OVCAR-4 ovarian): 1.98 µM
- TGI (OVCAR-4 ovarian): 5.07 µM
- GI50 (OVCAR-5 ovarian): 5.44 µM
- TGI (OVCAR-5 ovarian): 36.7 µM
- GI50 (OVCAR-8 ovarian): 3.11 µM
- TGI (OVCAR-8 ovarian): 10.5 µM
- GI50 (PC-3 prostate): 4.57 µM
- TGI (PC-3 prostate): > 100 µM
- GI50 (RPMI-8226 leukemia): 14.4 µM
- TGI (RPMI-8226 leukemia): > 100 µM
- GI50 (RXF 393 renal): 3.05 µM
- TGI (RXF 393 renal): 8.74 µM
- GI50 (SF-268 CNS): 3.1 µM
- TGI (SF-268 CNS): 11.8 µM
- GI50 (SF-295 CNS): 3.35 µM
- TGI (SF-295 CNS): 12.6 µM
- GI50 (SF-539 CNS): 2.65 µM
- TGI (SF-539 CNS): 8.49 µM
- GI50 (SK-MEL-2 melanoma): 13.3 µM
- TGI (SK-MEL-2 melanoma): 59.4 µM
- GI50 (SK-MEL-28 melanoma): 4.83 µM
- TGI (SK-MEL-28 melanoma): > 100 µM
- GI50 (SK-MEL-5 melanoma): 11.5 µM
- TGI (SK-MEL-5 melanoma): 48.3 µM
- GI50 (SK-OV-3 ovarian): 3.52 µM
- TGI (SK-OV-3 ovarian): 22.2 µM
- GI50 (SN12C renal): 2.5 µM
- TGI (SN12C renal): 17.7 µM
- GI50 (SNB-19 CNS): 3.09 µM
- TGI (SNB-19 CNS): 10.4 µM
- GI50 (SNB-75 CNS): 2.64 µM
- TGI (SNB-75 CNS): 16.2 µM
- GI50 (SR leukemia): 4.55 µM
- TGI (SR leukemia): > 100 µM
- GI50 (SW-620 colon): 3.7 µM
- TGI (SW-620 colon): 16.6 µM
- GI50 (T-47D breast): 2.78 µM
- TGI (T-47D breast): 15.8 µM
- GI50 (TK-10 renal): 6.47 µM
- TGI (TK-10 renal): 16.5 µM
- GI50 (U251 CNS): 2.62 µM
- TGI (U251 CNS): 6.97 µM
- GI50 (UACC-257 melanoma): 17.4 µM
- TGI (UACC-257 melanoma): > 100 µM
- GI50 (UACC-62 melanoma): 2.54 µM
- TGI (UACC-62 melanoma): 38.7 µM
- GI50 (UO-31 renal): 1.38 µM
- TGI (UO-31 renal): 6.4 µM
